Laboratory results from patent publication US8546452B2, “S1P3 receptor antagonist” (TOA Eiyo Ltd., priority 2005, dated 2013).
Read-outs that look alike come from different tables or passages of the source.

How the values were obtained:
hS1P1 = biological target: T1, hS1P1 (Homo sapiens, UniProt P21453); test: S1P receptor subtype selectivity, S1P-induced [Ca2+]i increase in CHO-K1 cells stably expressing S1P1 (Calcium3); format: cell-based
T1 construct: expressed in transfected cells
Procedure: (§1) The selectivity to the S1P receptor subtype was examined in the following manner. […] Furthermore, a Calcium3 (Molecular Devices, Inc.) solution prepared in HBSS (+) buffer, which is a fluorescent Ca^2+ indicator, was added, and the cells were incubated for 60 minutes at 37° C. Then, 100 μL of a test compound solution prepared to a concentration of 2×10 μmol/L was added, and the cells were incubated for 20 minutes at 37° C. […] The indicator was prepared and used according to the instruction manual.
(§2) A solution of the test compound was prepared by dissolving each of the test compounds in DMSO to a concentration of 10 mmol/L, and then diluting the solution with an HBSS (+) buffer solution to the predetermined concentration. […] The measurement values were obtained by subtracting the maximum RFU value for the blind test from the maximum RFU values for control or each test compounds. A decrease in the measurement value for the test compound relative to the control was indicated as the suppression rate (%), from which the IC50 value was calculated.

hS1P2 = biological target: T2, hS1P2 (Homo sapiens, UniProt O95136); test: S1P receptor subtype selectivity, S1P-induced [Ca2+]i increase in CHO-K1 cells stably expressing S1P2 (Calcium3); format: cell-based
T2 construct: expressed in transfected cells
T2 sequence (O95136 whole entry): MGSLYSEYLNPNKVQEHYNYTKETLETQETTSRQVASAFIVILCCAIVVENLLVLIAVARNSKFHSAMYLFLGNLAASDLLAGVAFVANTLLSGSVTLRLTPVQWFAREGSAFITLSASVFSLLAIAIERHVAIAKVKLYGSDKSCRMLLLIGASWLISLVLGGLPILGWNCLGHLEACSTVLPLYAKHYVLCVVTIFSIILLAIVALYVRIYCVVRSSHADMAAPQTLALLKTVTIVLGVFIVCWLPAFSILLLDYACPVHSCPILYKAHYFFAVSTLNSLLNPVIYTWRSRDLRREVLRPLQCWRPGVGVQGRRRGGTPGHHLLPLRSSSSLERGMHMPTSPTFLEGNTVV
Procedure: as §1, §2

hS1P3 [1] = biological target: T3, hS1P3 (Homo sapiens, UniProt Q99500); test: Suppressive effect on S1P-induced increase in [Ca2+]i, CHO-K1 cells expressing S1P3 (Fura 2-AM), IC50; format: cell-based; settings: S1P solution 50 nmol/L, read-out: hS1P3 suppression IC50
T3 sequence (Q99500 whole entry): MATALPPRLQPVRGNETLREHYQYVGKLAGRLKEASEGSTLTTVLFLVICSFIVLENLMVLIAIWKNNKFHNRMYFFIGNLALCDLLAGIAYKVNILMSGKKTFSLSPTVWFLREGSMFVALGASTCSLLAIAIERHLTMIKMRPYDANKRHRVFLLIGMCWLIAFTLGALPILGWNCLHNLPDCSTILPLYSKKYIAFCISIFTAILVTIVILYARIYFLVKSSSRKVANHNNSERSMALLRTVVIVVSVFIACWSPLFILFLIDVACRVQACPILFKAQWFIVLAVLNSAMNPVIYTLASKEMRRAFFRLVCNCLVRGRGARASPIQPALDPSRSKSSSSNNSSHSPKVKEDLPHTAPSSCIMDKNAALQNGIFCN

hS1P3 [2] = biological target: T3, hS1P3; test: S1P receptor subtype selectivity, S1P-induced [Ca2+]i increase in CHO-K1 cells stably expressing S1P3 (Calcium3); format: cell-based
Procedure: as §1, §2

[3] = Time to reach the maximum blood concentration after oral administration; format: in vivo; settings: oral administration (1 mg/kg)
isolated heart of rat = test: Effect on the coronary blood flow rate in isolated heart of rat (Langendorff perfusion); settings: S1P 10^−9 M to 10^−7 M in perfusion solution
Procedure: A male SD rat weighing about 350 g was anesthetized with pentobarbital sodium (50 mg/kg), and heparin (1000 U/kg) was administered through the lower limb vein. The heart was rapidly isolated and connected to a Langendorff perfusion apparatus. […] The temperature of the perfusion solution was set at 37±0.2° C., and gassed with a gas mixture (95% O2 and 5% CO2) such that the oxygen partial pressure was 550 mmHg or more. The coronary perfusion flow rate was measured with an electromagnetic blood flow meter through a probe installed in the circulation pathway. Furthermore, the effects on the heart function were investigated using the left ventricular developed pressure (LVDP), the first derivative of the left ventricular pressure (LV±dp/dt) and the heart rate (HR) as indices. The LVDP was determined by subtracting the left ventricular end diastolic pressure (LVEDP) from the left ventricular systolic pressure (LVSP), which was detected with a latex balloon inserted into the left ventricle, and measured with a pressure strain meter via a pressure transducer. […] Signals measured with the pressure strain meter were conducted to a differential meter and a heart rate meter, to measure the first derivative of the left ventricular pressure (LV±dp/dt) and the heart rate (HR). […]

[4] = tested on: FTY720-induced bradycardia; test: Effect on hemodynamic changes (bradycardia) caused by FTY720 in anesthetized rat; format: in vivo; settings: FTY720 1 mg/kg intravenously
Procedure: Thus, the effects of the compound of the present invention on the FTY720-induced bradycardia were examined.
A rat was anesthetized with pentobarbital (50 mg/kg, intraperitoneal administration), and then catheters for drug administration and blood pressure measurement were inserted into the lower limb vein and the carotid artery, respectively. The blood pressure was measured with a strain pressure amplifier via a pressure transducer. The heart rate was measured with a tachometer by means of the electrocardiographic wave. The FTY720 used was purchased from Cayman Chemical Co.
FTY720 (1 mg/kg) was intravenously administered, and the effects thereof on hemodynamics were investigated by measuring the blood pressure and the heart rate at 0 minute (immediately before administration), and 10, 20 and 30 minutes immediately after the intravenous administration.

[5] = 10 μM, CHO-K1 stably expressing S1P1, S1P solution 100 nmol/L, Calcium3, read-out: Suppression rate at 10 μM (%) hS1P1
[6] = 10 μM, CHO-K1 stably expressing S1P2, S1P solution 100 nmol/L, Calcium3, read-out: Suppression rate at 10 μM (%) hS1P2
[7] = 10 μM, CHO-K1 stably expressing S1P3, S1P solution 50 nmol/L, Calcium3, read-out: Suppression rate at 10 μM (%) hS1P3
[8] = CHO-K1, read-out: Suppression rate at 10 μM (%) hS1P1
[9] = CHO-K1, read-out: Suppression rate at 10 μM (%) hS1P2
[10] = CHO-K1, read-out: Suppression rate at 10 μM (%) hS1P3

T1 sequence (P21453 whole entry): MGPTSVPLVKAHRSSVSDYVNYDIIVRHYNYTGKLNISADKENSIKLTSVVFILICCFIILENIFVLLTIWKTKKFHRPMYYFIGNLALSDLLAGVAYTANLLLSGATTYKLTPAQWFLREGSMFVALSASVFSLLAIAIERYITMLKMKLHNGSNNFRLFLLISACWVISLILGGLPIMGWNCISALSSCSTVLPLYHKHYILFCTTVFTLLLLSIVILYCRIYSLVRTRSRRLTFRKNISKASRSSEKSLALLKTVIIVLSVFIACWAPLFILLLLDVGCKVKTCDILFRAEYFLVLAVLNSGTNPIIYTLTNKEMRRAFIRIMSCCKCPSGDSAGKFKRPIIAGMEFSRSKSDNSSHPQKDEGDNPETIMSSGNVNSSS

inhibition at 10 µM (hS1P1; [5]) [%]	inhibition at 10 µM (hS1P2; [6]) [%]	inhibition at 10 µM (hS1P3 [2]; [7]) [%]	Compound	IC50 (hS1P3 [1]) [nM]	inhibition at 10 µM (hS1P1; [8]) [%]	inhibition at 10 µM (hS1P2; [9]) [%]	other results
18.6	-0.4	68.5	O=C(C(=NNc1ccc(Cl)cc1)Nc1cccc(F)c1F)c1ccccc1 [Compound 3, 2-(4-chlorophenylhydrazono)-2-(2,3-difluorophenylamino)acetophenone]	14700	–	–	–
17.5	13.7	91.1	O=C(C(=NNc1ccc(Cl)cc1)Nc1cccc(F)c1)N1CCCCC1 [Compound 21, [1-(4-Chlorophenylhydrazono)-1-(3-fluorophenylamino)acetyl]piperidine]	26800	–	–	–
–	–	–	CC(C)(C)C(=O)/C(=N/c1ccc(Cl)cc1)NNc1ccc(Cl)cc1 [Compound 33, 1-(4-chlorophenylamino)-1-(4-chlorophenylhydrazono)-3,3-dimethyl-2-butanone]	–	–	–	time to reach the maximum blood concentration [3]: 4 h
22	16	101	CC(C)(C)C(=O)C(=NNc1ccc(F)cc1)Nc1ccc(F)cc1 [Compound 54, 1-(4-fluorophenylamino)-1-(4-fluorophenylhydrazono)-3,3-dimethyl-2-butanone]	4380	–	–	–
20.8	15.5	90.2	CC(C)(C)C(=O)C(=NNc1ccc(C(F)(F)F)cc1)Nc1ccc(F)cc1 [Compound 67, 1-(4-fluorophenylamino)-1-(4-trifluoromethylphenylhydrazono)-3,3-dimethyl-2-butanone]	8200	–	–	–
20.4	23.2	105	CC(C)(C)C(=O)C(=NNc1ccc(Br)cc1)Nc1ccc(F)cc1 [Compound 74, 1-(4-bromophenylhydrazono)-1-(4-fluorophenylamino)-3,3-dimethyl-2-butanone]	2320	–	–	–
5.1	26.1	103	CC(C)(C)C(=O)C(=NNc1ccc(Br)cc1)Nc1ccc(Br)cc1 [Compound 76, 1-(4-bromophenylamino)-1-(4-bromophenylhydrazono)-3,3-dimethyl-2-butanone]	1660	–	–	–
–	–	–	C#Cc1ccc(NC(=NNc2ccc(Br)cc2)C(=O)C(C)(C)C)cc1 [Compound 78, 1-(4-bromophenylhydrazono)-1-(4-ethynylphenylamino)-3,3-dimethyl-2-butanone]	970	25.1	20.8	inhibition at 10 µM (hS1P3 [2]; [10]): 105%
–	–	–	C#Cc1ccc(NC(=NNc2ccc(Cl)cc2)C(=O)CCCC)cc1 [Compound 111, 1-(4-chlorophenylhydrazono)-1-(4-ethynylphenylamino)-2-hexanone]	1550	-16.6	23.1	inhibition at 10 µM (hS1P3 [2]; [10]): 95.1%
22.1	12.8	86.6	CCC(CC)C(=O)C(=NNc1ccc(Cl)cc1)Nc1ccc(F)cc1 [Compound 112, 1-(4-chlorophenylhydrazono)-1-(4-fluorophenylamino)-3-ethyl-2-pentanone]	1660	–	–	–
–	–	–	C#Cc1ccc(NC(=NNc2ccc(Cl)cc2)C(=O)c2ccco2)cc1 [Compound 117, 1-(4-chlorophenylhydrazono)-1-(4-ethynylphenylamino)-2-(2-furyl)-2-ethanone]	2340	20.4	31.6	–
–	–	–	C#Cc1ccc(NC(=NNc2ccc(Cl)cc2)C(=O)C(C)(C)CCl)cc1 [Compound 122, 4-chloro-1-(4-chlorophenylhydrazono)-1-(4-ethynylphenylamino)-3,3-dimethyl-2-butanone]	3860	4.9	7.1	inhibition at 10 µM (hS1P3 [2]; [10]): 89.9%
15.7	24.7	–	C#Cc1ccc(NN=C(Nc2cccc(F)c2)C(=O)C(C)(C)C)cc1 [Compound 131, 1-(3-fluorophenylamino)-1-(4-ethynylphenylhydrazono)-3,3-dimethyl-2-butanone]	750	–	–	–
–	–	–	CC(C)(C)C(=O)C(=NNc1ccc(Cl)cc1)Nc1cccc(Cl)c1 [Compound 133, 1-(3-chlorophenylamino)-1-(4-chlorophenylhydrazono)-3,3-dimethyl-2-butanone]	840	16.7	37.7	–
36.4	29.8	96.5	CC(C)(C)C(=O)C(=NNc1ccc(Cl)cc1)Nc1ccc(Br)cc1 [Compound 134, 1-(4-bromophenylamino)-1-(4-chlorophenylhydrazono)-3,3-dimethyl-2-butanone]	870	–	–	–
–	–	–	C#Cc1ccc(NC(=NNc2ccc(Cl)cc2)C(=O)C(C)(C)C)cc1 [Compound 136, 1-(4-chlorophenylhydrazono)-1-(4-ethynylphenylamino)-3,3-dimethyl-2-butanone]	990	40.3	33.7	inhibition at 10 µM (hS1P3 [2]; [10]): 94.3%
–	–	–	CCC(CC)C(=O)C(=NNc1ccc(Cl)cc1)Nc1cccc(Cl)c1 [Compound 137, 1-(3-chlorophenylamino)-1-(4-chlorophenylhydrazono)-3-ethyl-2-pentanone]	1590	35.3	30.1	–
–	–	–	C#Cc1ccc(NN=C(Nc2ccc(C#C)cc2)C(=O)C(C)(C)C)cc1 [Compound 138, 1-(4-ethynylphenylamino)-1-(4-ethynylphenylhydrazono)-3,3-dimethyl-2-butanone]	1620	14.1	8	inhibition at 10 µM (hS1P3 [2]; [10]): 79.9%
–	–	–	CC(C)(C)CC(=O)C(=NNc1ccc(Cl)cc1)Nc1ccc(Cl)cc1 [Compound 139, 1-(4-chlorophenylamino)-1-(4-chlorophenylhydrazono)-4,4-dimethyl-2-pentanone]	1700	14.9	40.6	–
–	–	–	CC(C)(C)CC(=O)C(=NNc1ccc(Cl)cc1)Nc1cccc(Cl)c1 [Compound 140, 1-(3-chlorophenylamino)-1-(4-chlorophenylhydrazono)-4,4-dimethyl-2-pentanone]	1990	18.3	26.2	–
–	–	–	CCCCCCCCCCCCC/C=C/[C@@H](O)[C@@H](N)COP(=O)(O)O [Compound S1P, sphingosine 1-phosphate]	–	–	–	coronary blood flow rate, effect of S1P (isolated heart of rat): significantly decreased
–	–	–	CCCCCCCCc1ccc(CCC(N)(CO)CO)cc1 [FTY720]	–	–	–	heart rate, effect of FTY720 [4]: reduced the heart rate and induced bradycardia
